# Measurements published in PMC11406361, “Several orphan solute carriers functionally identified as organic cation transporters: Substrates specificity compared with known cation transporters” (The Journal of Biological Chemistry, 2024).
# Read-outs that look alike come from different tables or passages of the source.
# Key:
# SLC35G3 [1] = target: T1, SLC35G3 (Homo sapiens, UniProt Q8N808)
# SLC35G3 [2] = target: T1, SLC35G3; test: Uptake ratio screen, SLC35G3-overexpressing HEK293 over empty vector cells; format: cell-based; parameters: by amplifying the entire gene-of-interest within the HEK293 genome via a long-range PCR; conditions: 2.5 μM substrate, 2 min, HEK293
# SLC35E4 = target: T2, SLC35E4 (Homo sapiens, UniProt Q6ICL7); test: Uptake ratio screen, SLC35E4-overexpressing HEK293 over empty vector cells; format: cell-based; parameters: by amplifying the entire gene-of-interest within the HEK293 genome via a long-range PCR; conditions: 2.5 μM, 2 min
# T2 sequence (Q6ICL7 1-350): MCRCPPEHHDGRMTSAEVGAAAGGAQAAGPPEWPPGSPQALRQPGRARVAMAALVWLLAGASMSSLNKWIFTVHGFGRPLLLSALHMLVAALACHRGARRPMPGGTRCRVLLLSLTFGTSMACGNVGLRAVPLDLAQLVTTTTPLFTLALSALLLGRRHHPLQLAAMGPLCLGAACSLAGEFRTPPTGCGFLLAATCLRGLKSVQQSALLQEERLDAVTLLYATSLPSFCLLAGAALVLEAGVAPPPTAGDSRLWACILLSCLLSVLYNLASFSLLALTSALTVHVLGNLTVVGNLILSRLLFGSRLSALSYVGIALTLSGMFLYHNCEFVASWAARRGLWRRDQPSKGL
# Method: (§1) Typically discussed substrates of the proton organic-cation antiporter ([14]) are highlighted in dark green in Figure 1.
# (§2) In preparation for transport experiments, 24-well plates were pre-coated with poly-D-lysine (Sigma-Aldrich) and 300,000 cells were plated per well and incubated for 48 h. Firstly, the 24-well plate was placed on a heating plate at 37 °C, and the cells were washed with 37 °C HBSS^+ buffer (Hank’s balanced salt solution supplemented with 10 mM Hepes and adjusted to pH 7.4; Thermo Fisher Scientific). The substance-of-interest, which was diluted in 37 °C HBSS^+ to a desired concentration, was added to the cells for exactly 2 min. […] The uptake was stopped with ice-cold HBSS^+, and the 24-well plate was removed from the heating plate. The cells were washed twice with the cold HBSS^+ before they were lysed for 15 min with 80% (v/v) acetonitrile containing the respective internal standard for mass spectrometry. For variations in seeded cell numbers between the cell lines, several wells were lysed in RIPA buffer and used for total protein quantification using a bicinchoninic assay ([74]) and bovine serum albumin as calibration.
# (§3) The intracellular drug concentrations after transport experiments were analyzed by high-performance liquid chromatography coupled to tandem mass spectrometry analysis. The HPLC consisted of a Shimadzu Nexera HPLC System with a SIL-30AC autosampler, a LC-30AD pump, a CTO-20AC column oven, and a CBM-20A controller (Shimadzu). The reverse-phase chromatography of compounds was accomplished with a Brownlee SPP RP-Amide column with 4.6 × 100 mm inner dimensions, a particle size of 2.7 μm, and a preceding Phenomenex C-18 guard column. […] After separation, the detection of substances was performed with an API 4000 tandem mass spectrometer (AB SCIEX, https://sciex.com/support/software-support/software-downloads), followed by quantification of results with the Analyst software (AB SCIEX, version 1.6.2). […]
# (§4) Transport-mediated net uptake was determined as fold-increase of transporter-overexpressing cells over empty vector–transfected control cells.
# SLC47A1 = target: T3, SLC47A1 (Homo sapiens, UniProt Q96FL8); test: Uptake ratio screen, SLC47A1-overexpressing HEK293 over empty vector cells; format: cell-based; conditions: 2.5 μM, 2 min
# T3 sequence (Q96FL8 1-570): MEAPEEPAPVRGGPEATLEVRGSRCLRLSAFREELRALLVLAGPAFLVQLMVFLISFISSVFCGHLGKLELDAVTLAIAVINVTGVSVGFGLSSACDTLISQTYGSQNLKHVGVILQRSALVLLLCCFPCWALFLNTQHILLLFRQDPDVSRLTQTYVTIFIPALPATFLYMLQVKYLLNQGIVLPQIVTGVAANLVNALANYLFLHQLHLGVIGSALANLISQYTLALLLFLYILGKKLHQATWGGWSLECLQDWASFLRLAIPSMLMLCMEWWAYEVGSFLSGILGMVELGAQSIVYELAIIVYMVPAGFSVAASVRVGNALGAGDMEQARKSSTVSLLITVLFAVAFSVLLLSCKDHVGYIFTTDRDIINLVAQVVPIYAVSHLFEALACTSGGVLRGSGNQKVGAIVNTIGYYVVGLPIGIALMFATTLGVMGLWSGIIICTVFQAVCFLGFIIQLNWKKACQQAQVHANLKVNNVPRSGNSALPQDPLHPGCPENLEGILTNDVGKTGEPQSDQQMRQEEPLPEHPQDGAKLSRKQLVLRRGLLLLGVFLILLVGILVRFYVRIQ
# Method: as §1, §2, §3, §4
# SLC47A2 = SLC47A2 (Homo sapiens, UniProt Q86VL8); test: Uptake ratio screen, SLC47A2-overexpressing HEK293 over empty vector cells; format: cell-based; conditions: 2.5 μM, 2 min
# Method: as §1, §2, §3, §4
# SLC22A15 = target: T4, SLC22A15 (Homo sapiens, UniProt Q8IZD6); test: Uptake ratio screen, SLC22A15-overexpressing HEK293 over empty vector cells; format: cell-based; conditions: 2.5 μM (nicotine 10 μM), 2 min
# T4 construct: by amplifying the entire gene-of-interest within the HEK293 genome via a long-range PCR
# Method: as §1, §2
# The intracellular drug concentrations after transport experiments were analyzed by high-performance liquid chromatography coupled to tandem mass spectrometry analysis. The HPLC consisted of a Shimadzu Nexera HPLC System with a SIL-30AC autosampler, a LC-30AD pump, a CTO-20AC column oven, and a CBM-20A controller (Shimadzu). The reverse-phase chromatography of compounds was accomplished with a Brownlee SPP RP-Amide column with 4.6 × 100 mm inner dimensions, a particle size of 2.7 μm, and a preceding Phenomenex C-18 guard column. The mobile phase was composed of an organic additive with acetonitrile:methanol 6:1 (v/v) in total concentrations between 3% and 50% (v/v) and 0.1% (v/v) formic acid in the aqueous component of the eluent. During separation, the column oven was held at 40 °C and the mobile phase was maintained at a flow rate of 300 or 400 μl/min. After separation, the detection of substances was performed with an API 4000 tandem mass spectrometer (AB SCIEX, https://sciex.com/support/software-support/software-downloads), followed by quantification of results with the Analyst software (AB SCIEX, version 1.6.2). The composition of chromatographic conditions, as well as detailed mass spectrometric detection parameters, are listed in Table S5.
# as §4
# SLC35G3 [3] = target: T1, SLC35G3; conditions: ratio of Vmax over KM
# SLC22A18 = target: T5, SLC22A18 (Homo sapiens, UniProt Q96BI1); test: Uptake ratio screen, SLC22A18-overexpressing HEK293 over empty vector cells; format: cell-based; conditions: 2.5 μM (nicotine 10 μM), 2 min
# T5 construct: by amplifying the entire gene-of-interest within the HEK293 genome via a long-range PCR
# Method: as §1
# In preparation for transport experiments, 24-well plates were pre-coated with poly-D-lysine (Sigma-Aldrich) and 300,000 cells were plated per well and incubated for 48 h. Firstly, the 24-well plate was placed on a heating plate at 37 °C, and the cells were washed with 37 °C HBSS^+ buffer (Hank’s balanced salt solution supplemented with 10 mM Hepes and adjusted to pH 7.4; Thermo Fisher Scientific). The substance-of-interest, which was diluted in 37 °C HBSS^+ to a desired concentration, was added to the cells for exactly 2 min. […] For variations in seeded cell numbers between the cell lines, several wells were lysed in RIPA buffer and used for total protein quantification using a bicinchoninic assay ([74]) and bovine serum albumin as calibration.
# The intracellular drug concentrations after transport experiments were analyzed by high-performance liquid chromatography coupled to tandem mass spectrometry analysis. […] After separation, the detection of substances was performed with an API 4000 tandem mass spectrometer (AB SCIEX, https://sciex.com/support/software-support/software-downloads), followed by quantification of results with the Analyst software (AB SCIEX, version 1.6.2). […]
# SLC38A10 = SLC38A10 (Homo sapiens, UniProt Q9HBR0)
# Sequence of SLC38A10 (Q9HBR0 whole entry): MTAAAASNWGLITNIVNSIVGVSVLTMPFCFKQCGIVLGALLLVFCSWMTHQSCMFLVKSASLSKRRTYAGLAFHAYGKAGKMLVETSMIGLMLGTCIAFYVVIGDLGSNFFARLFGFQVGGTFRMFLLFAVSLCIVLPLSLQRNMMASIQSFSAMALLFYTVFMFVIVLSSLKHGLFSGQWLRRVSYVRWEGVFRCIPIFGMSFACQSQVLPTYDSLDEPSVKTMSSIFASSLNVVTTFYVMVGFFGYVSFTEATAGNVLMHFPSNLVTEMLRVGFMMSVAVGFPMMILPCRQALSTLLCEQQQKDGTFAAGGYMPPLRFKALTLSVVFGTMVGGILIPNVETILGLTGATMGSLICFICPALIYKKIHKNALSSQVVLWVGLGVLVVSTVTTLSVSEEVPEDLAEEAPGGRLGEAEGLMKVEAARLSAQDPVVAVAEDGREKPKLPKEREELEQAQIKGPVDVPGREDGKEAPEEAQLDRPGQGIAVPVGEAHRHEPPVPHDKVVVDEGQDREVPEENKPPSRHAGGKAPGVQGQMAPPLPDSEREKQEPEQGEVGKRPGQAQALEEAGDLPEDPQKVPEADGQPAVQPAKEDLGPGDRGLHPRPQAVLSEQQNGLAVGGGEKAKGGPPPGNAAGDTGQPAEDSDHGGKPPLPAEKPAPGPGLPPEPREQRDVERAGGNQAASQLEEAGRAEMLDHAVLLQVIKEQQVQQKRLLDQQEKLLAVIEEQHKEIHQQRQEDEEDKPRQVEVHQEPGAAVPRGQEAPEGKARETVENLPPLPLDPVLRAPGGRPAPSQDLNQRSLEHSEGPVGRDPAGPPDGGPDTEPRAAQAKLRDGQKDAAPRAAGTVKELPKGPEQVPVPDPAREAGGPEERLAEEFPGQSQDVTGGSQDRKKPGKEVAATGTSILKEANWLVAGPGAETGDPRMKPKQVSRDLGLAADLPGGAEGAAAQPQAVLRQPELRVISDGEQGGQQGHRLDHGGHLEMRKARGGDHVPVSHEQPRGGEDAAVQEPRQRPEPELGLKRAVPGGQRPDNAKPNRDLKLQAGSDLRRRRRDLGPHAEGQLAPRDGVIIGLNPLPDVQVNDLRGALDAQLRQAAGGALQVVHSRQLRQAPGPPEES
# T1 sequence (Q8N808 whole entry): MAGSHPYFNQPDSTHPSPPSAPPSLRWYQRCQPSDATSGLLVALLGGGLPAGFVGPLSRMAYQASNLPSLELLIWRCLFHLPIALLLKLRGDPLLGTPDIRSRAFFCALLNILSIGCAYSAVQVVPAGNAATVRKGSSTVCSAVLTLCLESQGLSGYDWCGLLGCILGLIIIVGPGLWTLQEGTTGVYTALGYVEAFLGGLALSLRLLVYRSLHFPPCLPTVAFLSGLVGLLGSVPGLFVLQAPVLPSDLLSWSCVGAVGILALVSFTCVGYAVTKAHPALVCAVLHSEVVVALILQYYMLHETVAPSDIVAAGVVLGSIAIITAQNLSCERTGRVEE
# T4 sequence (Q8IZD6 whole entry): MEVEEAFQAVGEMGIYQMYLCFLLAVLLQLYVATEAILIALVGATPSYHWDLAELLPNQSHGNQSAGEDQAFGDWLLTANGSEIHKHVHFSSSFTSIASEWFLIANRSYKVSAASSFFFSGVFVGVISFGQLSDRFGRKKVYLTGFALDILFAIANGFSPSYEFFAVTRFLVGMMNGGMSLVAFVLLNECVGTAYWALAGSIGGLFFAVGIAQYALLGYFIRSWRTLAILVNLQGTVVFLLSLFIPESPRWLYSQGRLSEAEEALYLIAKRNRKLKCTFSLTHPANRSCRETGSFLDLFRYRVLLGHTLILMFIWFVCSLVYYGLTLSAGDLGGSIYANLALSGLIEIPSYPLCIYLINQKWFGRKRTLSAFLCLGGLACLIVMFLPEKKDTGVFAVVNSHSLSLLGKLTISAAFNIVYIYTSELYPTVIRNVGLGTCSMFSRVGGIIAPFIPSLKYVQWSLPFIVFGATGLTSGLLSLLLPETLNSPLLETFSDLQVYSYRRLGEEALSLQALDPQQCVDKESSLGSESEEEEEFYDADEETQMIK
# Sequence of SLC47A2 (Q86VL8 1-566 isoform Q86VL8-3): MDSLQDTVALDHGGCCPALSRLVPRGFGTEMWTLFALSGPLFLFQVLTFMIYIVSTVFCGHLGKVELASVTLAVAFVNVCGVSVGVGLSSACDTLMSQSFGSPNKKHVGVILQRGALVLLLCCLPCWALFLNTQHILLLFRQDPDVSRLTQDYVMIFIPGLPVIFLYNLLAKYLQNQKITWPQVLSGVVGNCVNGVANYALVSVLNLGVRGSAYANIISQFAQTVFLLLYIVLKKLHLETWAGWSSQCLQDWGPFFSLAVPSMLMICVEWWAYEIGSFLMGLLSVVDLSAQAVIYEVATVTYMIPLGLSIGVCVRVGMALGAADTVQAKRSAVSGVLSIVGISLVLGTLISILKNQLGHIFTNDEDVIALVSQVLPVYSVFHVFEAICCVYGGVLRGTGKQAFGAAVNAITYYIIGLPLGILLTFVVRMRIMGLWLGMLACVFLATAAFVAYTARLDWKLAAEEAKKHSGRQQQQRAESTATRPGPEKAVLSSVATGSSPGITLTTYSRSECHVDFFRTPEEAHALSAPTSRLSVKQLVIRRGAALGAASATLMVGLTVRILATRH
# T5 sequence (Q96BI1 whole entry): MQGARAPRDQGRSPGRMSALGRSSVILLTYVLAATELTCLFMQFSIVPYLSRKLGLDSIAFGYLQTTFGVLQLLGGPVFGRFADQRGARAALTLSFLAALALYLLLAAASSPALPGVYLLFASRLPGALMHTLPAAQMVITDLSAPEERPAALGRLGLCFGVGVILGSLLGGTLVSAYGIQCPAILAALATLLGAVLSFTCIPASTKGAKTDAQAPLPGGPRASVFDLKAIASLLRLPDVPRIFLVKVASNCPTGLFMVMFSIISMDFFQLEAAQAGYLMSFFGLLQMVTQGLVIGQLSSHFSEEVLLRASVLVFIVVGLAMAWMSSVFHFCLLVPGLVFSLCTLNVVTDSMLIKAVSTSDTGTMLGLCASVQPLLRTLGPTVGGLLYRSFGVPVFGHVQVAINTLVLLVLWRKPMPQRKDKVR
smiles,measurement,setting,value
CCCN1CCCC[C@H]1C(=O)Nc1c(C)cccc1C [Ropivacaine],Clint (±SEM),SLC35G3 [1],3.64 (±1.93) μl × mg protein^-1 × min^-1
same,"Uptake data for SLC35G3, mean value (fold-increase over empty vector control)",SLC35G3 [2],3.07
CC(C)C[C@H](N)C(=O)O [leucine],Uptake by SLC35E4 (in words),SLC35E4,minor
Nc1nc2c(ncn2COCCO)c(=O)[nH]1 [Acyclovir],Uptake by SLC47A1 (MATE1) (in words),SLC47A1,only transported by the MATEs
same,Uptake by SLC47A2 (MATE2K) (in words),SLC47A2,only transported by the MATEs
same,"Uptake data for SLC35G3, mean value (fold-increase over empty vector control)",SLC35G3 [2],1.21
CCOC(=O)C1(c2ccccc2)CCN(C)CC1 [Meperidine],Uptake by SLC22A15 (in words),SLC22A15,significantly increased the uptake
same,Clint (±SEM),SLC35G3 [3],4.60 (±4.78) μl × mg protein^-1 × min^-1
CN1CCC[C@H]1c1cccnc1 [Nicotine],Uptake by SLC22A15 (in words),SLC22A15,significantly increased the uptake
same,Uptake by SLC22A18 (in words),SLC22A18,newly identified substrates
same,Vmax (±SEM),"SLC38A10; SLC38A10, HEK293, net uptake over empty vector cells",48.4 (±7.26) pmol × mg protein^-1 × min^-1
same,Clint (±SEM),"SLC38A10; SLC38A10, ratio of Vmax over KM",0.78 (±0.57) μl × mg protein^-1 × min^-1
C[C@]12CC[C@@H]3c4ccc(OS(=O)(=O)O)cc4CC[C@H]3[C@@H]1CCC2=O [estrone-3-sulfate],Uptake by SLC47A1 (MATE1) (in words),SLC47A1,confirmed to be transported
same,Uptake by SLC47A2 (MATE2K) (in words),SLC47A2,confirmed to be transported
C[N+](C)(C)CC(O)CC(=O)[O-] (stereo not shown) [Carnitine-d9],Uptake by SLC22A15 (in words),SLC22A15,did not measure significant uptake
same,"Uptake data for SLC35G3, mean value (fold-increase over empty vector control)",SLC35G3 [2],1.05
